From PubChem BioAssay (NCI)
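Here, GI50 denotes the concentration required for 50% inhibition of growth. The concentration for full growth arrest is given as TGI.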

Columns and labels:
Experiment in all cases: DTP human tumour cell line panel, 384-well format
NCI-H226 lung = tested on: NCI-H226 lung
NCI-H23 lung = tested on: NCI-H23 lung
NCI-H322M lung = tested on: NCI-H322M lung
NCI-H460 NSCLC = tested on: NCI-H460 NSCLC
NCI-H522 lung = tested on: NCI-H522 lung
NCI/ADR-RES ovarian = tested on: NCI/ADR-RES ovarian
OVCAR-3 ovarian = tested on: OVCAR-3 ovarian
OVCAR-4 ovarian = tested on: OVCAR-4 ovarian
OVCAR-5 ovarian = tested on: OVCAR-5 ovarian
OVCAR-8 ovarian = tested on: OVCAR-8 ovarian
PC-3 prostate = tested on: PC-3 prostate
RPMI-8226 leukemia = tested on: RPMI-8226 leukemia
RXF 393 renal = tested on: RXF 393 renal
SF-268 CNS = tested on: SF-268 CNS
SF-295 CNS = tested on: SF-295 CNS
SF-539 CNS = tested on: SF-539 CNS
SK-MEL-28 melanoma = tested on: SK-MEL-28 melanoma
SK-MEL-5 melanoma = tested on: SK-MEL-5 melanoma
SN12C renal = tested on: SN12C renal
SNB-19 CNS = tested on: SNB-19 CNS
SNB-75 CNS = tested on: SNB-75 CNS
SR leukemia = tested on: SR leukemia
T-47D breast = tested on: T-47D breast
TK-10 renal = tested on: TK-10 renal
U251 glioblastoma = tested on: U251 glioblastoma
UACC-257 melanoma = tested on: UACC-257 melanoma
UACC-62 melanoma = tested on: UACC-62 melanoma

**Q.** For Cn1cc(-c2[nH]c3cc(NC(=O)[C@H](N)C4CCCCC4)cc4c3c2C=NNC4=O)cn1, which GI50 (NCI-H226 lung) is on record?
**A.** 636 nM

**Q.** And the TGI (NCI-H226 lung)?
**A.** 3950 nM

**Q.** What about the GI50 (NCI-H23 lung) of the same compound?
**A.** 276 nM

**Q.** And the TGI (NCI-H23 lung)?
**A.** 1740 nM

**Q.** What about the GI50 (NCI-H322M lung) of the same compound?
**A.** 198 nM

**Q.** And the TGI (NCI-H322M lung)?
**A.** 894 nM

**Q.** And the GI50 (NCI-H460 NSCLC)?
**A.** 3090 nM

**Q.** What about the TGI (NCI-H460 NSCLC) of the same compound?
**A.** 11100 nM

**Q.** And the GI50 (NCI-H522 lung)?
**A.** 219 nM

**Q.** And the TGI (NCI-H522 lung)?
**A.** 627 nM

**Q.** And the GI50 (NCI/ADR-RES ovarian)?
**A.** 4970 nM

**Q.** What about the TGI (NCI/ADR-RES ovarian) of the same compound?
**A.** 23100 nM

**Q.** What about the GI50 (OVCAR-3 ovarian) of the same compound?
**A.** 49.6 nM

**Q.** What about the TGI (OVCAR-3 ovarian) of the same compound?
**A.** 209 nM

**Q.** And the GI50 (OVCAR-4 ovarian)?
**A.** 29.6 nM

**Q.** And the TGI (OVCAR-4 ovarian)?
**A.** 93.9 nM

**Q.** What about the GI50 (OVCAR-5 ovarian) of the same compound?
**A.** 326 nM

**Q.** What about the TGI (OVCAR-5 ovarian) of the same compound?
**A.** 953 nM

**Q.** And the GI50 (OVCAR-8 ovarian)?
**A.** 153 nM

**Q.** And the TGI (OVCAR-8 ovarian)?
**A.** 359 nM

**Q.** And the GI50 (PC-3 prostate)?
**A.** 768 nM

**Q.** And the TGI (PC-3 prostate)?
**A.** 13400 nM

**Q.** What about the GI50 (RPMI-8226 leukemia) of the same compound?
**A.** 1920 nM

**Q.** What about the TGI (RPMI-8226 leukemia) of the same compound?
**A.** 3370 nM

**Q.** And the GI50 (RXF 393 renal)?
**A.** 211 nM

**Q.** What about the TGI (RXF 393 renal) of the same compound?
**A.** 689 nM

**Q.** And the GI50 (SF-268 CNS)?
**A.** 169 nM

**Q.** And the TGI (SF-268 CNS)?
**A.** 10900 nM

**Q.** What about the GI50 (SF-295 CNS) of the same compound?
**A.** 339 nM

**Q.** What about the TGI (SF-295 CNS) of the same compound?
**A.** 2300 nM

**Q.** And the GI50 (SF-539 CNS)?
**A.** 38.1 nM

**Q.** And the TGI (SF-539 CNS)?
**A.** 156 nM

**Q.** And the GI50 (SK-MEL-28 melanoma)?
**A.** 761 nM

**Q.** And the TGI (SK-MEL-28 melanoma)?
**A.** 16400 nM

**Q.** And the GI50 (SK-MEL-5 melanoma)?
**A.** 175 nM

**Q.** And the TGI (SK-MEL-5 melanoma)?
**A.** 407 nM

**Q.** What about the GI50 (SN12C renal) of the same compound?
**A.** 200 nM

**Q.** And the TGI (SN12C renal)?
**A.** 856 nM

**Q.** What about the GI50 (SNB-19 CNS) of the same compound?
**A.** 299 nM

**Q.** And the TGI (SNB-19 CNS)?
**A.** 1090 nM

**Q.** And the GI50 (SNB-75 CNS)?
**A.** 506 nM

**Q.** And the TGI (SNB-75 CNS)?
**A.** 2990 nM

**Q.** And the TGI (SR leukemia)?
**A.** 27.2 nM

**Q.** And the GI50 (T-47D breast)?
**A.** 12200 nM

**Q.** What about the TGI (T-47D breast) of the same compound?
**A.** 24700 nM

**Q.** What about the GI50 (TK-10 renal) of the same compound?
**A.** 222 nM

**Q.** What about the TGI (TK-10 renal) of the same compound?
**A.** 515 nM

**Q.** And the GI50 (U251 glioblastoma)?
**A.** 320 nM

**Q.** What about the TGI (U251 glioblastoma) of the same compound?
**A.** 1520 nM

**Q.** And the GI50 (UACC-257 melanoma)?
**A.** 1420 nM

**Q.** And the TGI (UACC-257 melanoma)?
**A.** 6260 nM

**Q.** What about the GI50 (UACC-62 melanoma) of the same compound?
**A.** 486 nM

**Q.** And the TGI (UACC-62 melanoma)?
**A.** 18200 nM
